Results on two compounds are retold here after patent US20060263760A1, “Screening method of substance with antidepressant action” (THE UNIVERSITY OF TOKYO, priority 2005, published 2006).

The test system of the assay is nerve cells in hippocampus CA1 region of hippocampus sections. The experiment in a line: long-term potentiation of excitatory postsynaptic potential (EPSP) in hippocampus sections, accumulated potential with single glass electrode. The format is cell-based, rat. As to conditions: for EPSP reaction (ratio of largest slope value of accumulated potential to basal slope value defined as 100%): read 60 minutes after stimulation. As for the experimental part:
A specific example of the assessment of substances with antidepressant actions by the screening method is described below. At the cell preparation step in the Example, the brain hippocampus of an adult rat was cut vertically along the longitudinal axis using vibratome (DSK ZERO1, manufactured by DOUSAKA EM K.K), to prepare plural longitudinal cross- sectional sections of a thickness of 400 μm. In this Example, a part of the hippocampus sections is prepared as a candidate substance treatment group, while another part of the hippocampus sections is prepared as a control treatment group and an additional part of the hippocampus sections is prepared as non-treatment group. These hippocampus sections were immersed in an artificial cerebrospinal fluid sufficiently saturated with a mixture gas of oxygen and carbon dioxide (95% oxygen gas, 5% carbon dioxide gas) and left to stand at room temperature for 1.5 hours or more under the purge of the mixture gas from the above over the hippocampus sections. Thereafter, the electrophysiological response was assayed as described below. As the artificial cerebrospinal fluid, an aqueous solution containing 124 mM NaCl, 1.25 mM NaH2PO4.2H2O, 5 mM KCl, 2 mM MgSO4.7H2O, 2 mM CaCl2, 22 mM NaHCO3, and 10 mM glucose was used. […] At the cell preparation step, additionally, the presynaptic fibers in the CA1 regions of the hippocampus sections were repeatedly stimulated at an interval of 20 seconds, using the stimulation electrode, while excitatory postsynaptic potential induced by the electric stimulation was recorded as accumulated potential over about 30 minutes. […] Therefore, it was determined to assess the dimension of the slope in the part M with the most rapid change of the accumulated potential on the stimulation [namely, the largest slope on the earlier side of the assay time period of accumulated potential waveform (on the left side)] […]

As for `C[C@]12CC[C@@H]3c4ccc(O)cc4CC[C@H]3[C@@H]1CC[C@@H]2O` [estradiol], the “EPSP reaction (ratio of largest slope value of accumulated potential to basal slope value defined as 100%)” value (estradiol 1 nM together with corticosteron 1 μM perfused 30 minutes before 100-Hz high-frequency stimulation) is on record as “about 130%”.
As for `C[C@]12C[C@H](O)[C@H]3[C@@H](CCC4=CC(=O)CC[C@@]43C)[C@@H]1CC[C@@H]2C(=O)CO` [corticosteron], the “reduction of the level of the long-term potentiation [dimension (%) of EPSP reaction]” value (contact to corticosteron 1 μM versus non-treatment group, 60 minutes after high-frequency stimulation) was “about 20%”. The “EPSP reaction (ratio of largest slope value of accumulated potential to basal slope value defined as 100%)” value (corticosteron 1 μM alone perfused 30 minutes before 100-Hz high-frequency stimulation, non-treatment group about 130%) is on record as “about 110%”.
